Data from a melting point compilation (Tetko et al.; mined from patent text by program, amines drawn as free bases though some values may be those of a salt).

SMILES | melting point [°C]
CC1(C)CC(C)(C)CC2(CCC(=O)N2)C1 | 158 to 160
CC(C)[N+]([O-])=Cc1cccc(N)c1 | 103 to 106
Cc1c(C=CC#N)cccc1[N+](=O)[O-] | 136
CC(C)=CCC(C(=O)O)C(=O)O | 96 to 97
CC(=O)OCCOC(C)n1cc(F)c(=O)[nH]c1=O (stereo not given) | 121 to 122
Cc1ccc(-c2ccc3c(c2)C=C(CN2CCC(NC(=O)C(F)(F)F)CC2)CCO3)cc1 | 94 to 96
Cn1c(C(F)(F)F)nn(Cc2c(Cl)ccc(C(=O)O)c2Cl)c1=O | 207
C#CCOc1cc(-n2c(=O)cc(C(F)(F)F)n(C)c2=O)c(F)cc1Br | 134
FC(F)Oc1cc(-n2nc3c(c2Cl)CCCC3)c(Cl)cc1Cl | 121 to 123
NCCCCc1cccc(C2=NNC(=O)CC2)c1 | 128 to 130
C#Cc1ccc2c(c1)C(c1ccccc1F)=NCc1c(C(=O)NC)ncn1-2 | 235 to 236
Cc1c(Cl)cc(C#N)n1CCC(C)NC(=O)C(C#N)C(C)C(C)(C)C (stereo not given) | 111 to 118
CCN(C)C1=NS(=O)(=O)c2ccc(Cl)cc2N1 | > 220
C=C(C)C(=O)N1CCC[C@H]1C(=O)O | 102 to 104
Clc1cc(Cl)c2c(c1)[nH]c1c2ccc2cc[nH]c21 | > 250
CCCCC(CC)Cn1c(C)cc(C)c(C#N)c1=O (stereo not given) | 84 to 89
Cn1cncc1C(O)(c1ccc2c(c1)c(-c1cccc(Cl)c1)cc(=O)n2C)c1nccn1C (stereo not given) | 130
COc1cc(CNC(=O)c2cc3c(=O)n(CC4CCCCC4)c(=O)n(C)c3s2)ccn1 | 167 to 210

The remaining lines, values ahead:

melting point [°C] | SMILES
158 to 160 | CSC[C@H](C)NC(=O)c1c(OC(F)(F)F)cccc1C(=O)Nc1ccc(Cn2nc(C(F)(F)F)cc2C(F)(F)F)cc1C
149 | COc1cc(Nc2nccc(Oc3ccccc3)n2)cc(OC)c1OC
103 to 105 | CC1(C)SCN(C(=O)[C@@H](O)[C@H](Cc2ccccc2)NC(=O)O[C@H]2CCOC2)[C@@H]1C(=O)N[C@H]1CCCc2ccccc21
157 | Cc1nc(NC(=O)Nc2ccccc2)n(C)c(=O)c1CCN1CCC(Cc2nc3ccccc3n2Cc2ccc(F)cc2)CC1
188 to 189 | COc1ccc(Nc2ccc(Cl)cc2C(=O)O)cc1
124 to 125 | CCOc1nn(-c2ccc(C(F)(F)F)cn2)cc1CCCOc1ccc(CCC(=O)O)cc1O
164 to 166 | CC(C)Oc1c(C(N)=O)n(C)c2ccc(OCc3ccccc3)cc12
104 to 105 | COCCOCc1c(F)cccc1-c1ccc2nc(-c3ccc(Cl)cc3)cn2c1
73 | COc1ccc2c(c1)CC(CC(C)=O)C2=O (racemic)
222 to 224 | CCOC(=O)Nc1cc2c(cn1)[nH]c1ccccc12
79 to 80 | COc1ccccc1C1CC(=O)c2c(C)coc2C1 (stereo not given)
215 to 216 | CC(Cl)(Cl)C(NC(=O)c1ccc(Br)cc1)NC(=NC#N)Nc1ccc(Cl)nc1 (stereo not given)
141 | Fc1ccccc1COc1cccnc1NC(=S)Nc1ccc(Cl)cc1
56 to 57 | COC(=O)c1cc(-n2cccc2)ccc1C
65 to 66 | CC(C)c1nccn1N=Cc1ccccc1
232 to 236 | Cc1cc(=O)c(-c2ccc(Oc3ccc(Cl)cc3)cc2)c(C)n1O
69 to 70 | COC(=O)Cc1ccc(OC[C@@H](C)NC[C@H](O)c2ccccc2)cc1
93 to 98 | CN1CCN(c2cc(Cl)cc3c2c(=O)n(Cc2ccc(Br)cc2)c(=O)n3Cc2ccccc2)CC1
140 to 144 | CC1(O)CCN(C(=O)C(c2ccccc2)n2cnc3[nH]ncc3c2=S)CC1 (stereo not given)
173 to 175 | O=C1C(=O)c2ccc(-c3ccccc3)cc2C2=C1SCC1(CCN(CC(O)COc3ccc(F)cc3)CC1)O2 (stereo not given)
276 to 277 | CC(C)c1cc(-c2ccc(F)c3ccccc23)nc(NS(C)(=O)=O)n1
282 to 283 | N#Cc1ccc2c(c1)S(=O)(=O)c1ccccc1C2=O
